Laboratory results from patent publication US12662494B2, “Optically active bridged piperidine derivative” (Sumitomo Pharma Co., Ltd., priority 2018, dated 2026).

Experiments:
[1] = target: T1, Menin-MLL binding (His-Menin1-615 and MLL1-172-FLAG) (Homo sapiens, UniProt O00255); test: Test 1: inhibition of the menin-MLL binding (HTRF); details: for IC50: His-Menin1-615 30 nmol/L, MLL1-172-FLAG 50 nmol/L; for menin-MLL binding inhibition activity (in words): summary of Test 1 table
T1 construct: Menin1-615 wherein 6× His tag and HA tag are inserted in the N-terminus; HA (N); myc (C)
T1 sequence (O00255 1-615 isoform O00255-1): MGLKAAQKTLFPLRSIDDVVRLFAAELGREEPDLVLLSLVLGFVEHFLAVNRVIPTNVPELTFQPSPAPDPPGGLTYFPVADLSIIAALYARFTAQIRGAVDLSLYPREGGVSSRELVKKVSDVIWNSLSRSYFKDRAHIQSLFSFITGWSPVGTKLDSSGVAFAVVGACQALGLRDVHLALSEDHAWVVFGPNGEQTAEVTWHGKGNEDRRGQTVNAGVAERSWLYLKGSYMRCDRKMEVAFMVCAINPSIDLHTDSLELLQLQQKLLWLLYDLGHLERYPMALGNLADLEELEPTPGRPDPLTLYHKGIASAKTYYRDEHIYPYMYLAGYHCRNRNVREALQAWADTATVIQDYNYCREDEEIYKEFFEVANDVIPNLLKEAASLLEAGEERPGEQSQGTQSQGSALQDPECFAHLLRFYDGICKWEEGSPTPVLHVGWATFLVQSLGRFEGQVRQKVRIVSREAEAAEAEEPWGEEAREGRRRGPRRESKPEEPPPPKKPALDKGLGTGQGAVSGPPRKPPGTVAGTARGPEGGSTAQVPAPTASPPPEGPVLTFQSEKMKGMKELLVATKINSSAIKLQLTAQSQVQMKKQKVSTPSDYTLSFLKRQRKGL
Method: Test 1: Test for Evaluating the Inhibition of the Menin-MLL Binding
Menin1-615 wherein 6× His tag and HA tag are inserted in the N-terminus, and myc tag is inserted in the C-terminus (hereinafter, referred to as His-Menin1-615), was diluted with an assay buffer (25 mmol/L HEPES, 150 mmol/L NaCl, 1 mmol/L dithiothreitol, 0.5% (w/v) Tween 80, 0.3% (w/v) BSA, 0.3% (w/v) skim milk) to adjust the final concentration to 30 nmol/L. The test compounds were also diluted with the assay buffer to adjust each concentration of the test compounds to 0.005 to 5 μmol/L. The prepared His-Menin1-615 and test compounds were added to a light-shielding 384-well low-volume plate (Corning, #4514) in 2 μL/well and […], respectively, and the plate was covered with a lid for light-shielding (Corning, #3935), and incubated at room temperature for 3 hours. After the incubation, MLL1-172 wherein FLAG tag is inserted in the C-terminus (MLL1-172-FLAG), was separately diluted with the assay buffer to adjust the final concentration to 50 nmol/L. The prepared MLL1-172-FLAG was added to the above plate in 2 μL/well, and the plate was covered with a lid for light-shielding and incubated at room temperature for an hour.
Then, anti-6HIS-d2 antibody (cisbio, 61HISDLA) and anti-FLAGM2-K antibody (cisbio, 61FG2KLA) were diluted with an antibody dilution buffer (50 mmol/L Tris, 150 mmol/L NaCl, 800 mmol/L KF, pH 7.4) to adjust the final concentration to 1.4 μg/mL to prepare an antibody mixture. The prepared antibody mixture was added to the above plate in 10 μL/well, and the plate was covered with a lid and incubated at 4° C. for 17 to 24 hours. After the incubation, the signal was detected with RUBYstar (BMG LABTECH).

[2] = tested on: RS4; 11 cells; test: Test 2: inhibition of cell proliferation, RS4;11; type: cell-based; details: for IC50: Homo sapiens, 168 h, RS4;11 cells, 7 days, PrestoBlue cell viability
Method: (§1) Test 2: Test for Evaluating the Inhibition of Cell Proliferation
(§2) RS4; 11 cells were obtained from American Type Culture Collection (ATCC). The cells were cultured at 37° C. in the presence of 5% CO2 in RPMI 1640 medium containing 10% fetal bovine serum and 1% penicillin/streptomycin. MOLM-13 cells were separately obtained from DSMZ (Deutsche Sammlung von Mikroorganismen und Zellkulturen GmbH). The cells were cultured at 37° C. in the presence of 5% CO2 in RPMI 1640 medium containing […] and 1% penicillin/streptomycin.
(§3) The cells were plated to a 96-well plate in 2000 cells/well, each test compound was added thereto to adjust the final concentration of DMSO to 0.1% of DMSO, and the cells were cultured for 7 days. After the cultivation, the cell viability was calculated with PrestoBlue™ Cell Viability Reagent (Invitrogen, A13261). The IC50 value was calculated from a survival curve, that corresponds to the concentration of the test compound at which the cell proliferation inhibition rate is 50%.

[3] = tested on: MOLM-13 cells; test: Test 2: inhibition of cell proliferation, MOLM-13; type: cell-based; details: Homo sapiens, 168 h, 7 days, PrestoBlue cell viability
Method: as §1, §2, §3

[4] = tested on: MEIS1; test: Test 3: inhibition of mRNA transcription, MEIS1 in MV4;11 cells; type: cell-based; details: for mRNA at 1 μM (% control) MEIS1: MV4;11 cells, 20 to 24 hours, fitted with GAPDH; for mRNA transcription inhibition activity (in words): summary of Test 3 table, MEIS1 and HOXA9, MV4;11 cells, 1 μM
Method: (§4) Test 3: Test for the Inhibition of mRNA Transcription with Test Compounds
(§5) MV4; 11 cells were obtained from American Type Culture Collection (ATCC). The cells were cultured at 37° C. in the presence of 5% CO2 in RPMI 1640 medium containing 10% fetal bovine serum and 1% penicillin/streptomycin. To the MV4; 11 cells was added each test compound to adjust the final concentration to 1 μmol/L, and the cells were cultured at 37° C. in the presence of 5% CO2 for 20 to 24 hours. After the incubation, the total RNA was extracted from the cells with RNeasy™ Mini Kit (QIAGEN, 74106), and CDNA was synthesized with Superscript™ VILO™ CDNA Synthesis Kit (Invitrogen, #11754250). By using TaqMan™ Gene Expression Master Mix (Applied Biosystems, 4369016) and TaqMan™ probe (Applied Biosystems), the expression level of mRNA was quantified from the obtained cDNA with 7900HT (Applied Biosystems). The mRNA expression level of each obtained gene was fitted with the expression level of mRNA of GAPDH.

[5] = tested on: HOXA9; test: Test 3: inhibition of mRNA transcription, HOXA9 in MV4;11 cells; type: cell-based; details: 20 to 24 hours, fitted with GAPDH
Method: as §4, §5

[6] = Test 4: pharmacokinetic study, oral, mouse
Method: Test 4: Pharmacokinetic Study
The test compound suspended in 0.5% methylcellulose was orally administered to 7-week-old male NOD. CB17-Prkdcscid/J mouse in a dose of 100 mg/kg. The blood sample was taken from jugular vein without anesthesia over time for 24 hours. The blood sample was centrifuged to obtain plasma. The plasma was pre-treated by methanol extraction method, and then analyzed with an LC-MS/MS to determine the concentration of the test compound. Based on the data from 0 hour after the administration until the time (t) when there was the final detection in the plasma, AUC was calculated by trapezoidal method.

[7] = summary of Test 2 table, RS4;11 and MOLM-13

IC50 [1] [nM] | IC50 [2] [nM] | IC50 [3] [nM] | AUC(0-t) ([6]; male, NOD.CB17-Prkdcscid/J, plasma, po, 100 mg/kg) [ng·h/mL] | compound-exposure in plasma (in words) ([6]; summary of Test 4 table, oral 100 mg/kg) | Compound | menin-MLL binding inhibition activity (in words) [1] | cell proliferation inhibition activity, good (in words) [2, 7] | cell proliferation inhibitory activity, potent (in words) [2, 7] | mRNA at 1 μM (% control) MEIS1 [4] [% control] | mRNA transcription inhibition activity (in words) [4] | mRNA at 1 μM (% control) HOXA9 [5] [% control]
18.8 | 80 | 150 | 6740 | good compound-exposure in plasma | O=C([C@H]1N[C@H]2CC[C@@H]1[C@H](F)[C@@H]2CC1CC1)N1CC2(C1)CN(c1c(C(F)(F)F)cnc3sc(CC(F)(F)F)cc13)C2 [Example 11, [(1S,3S,4S,5R,6R)-6-(cyclopropylmethyl)-5-fluoro-2-azabicyclo[2.2.2]octan-3-yl]{6-[2-(2,2,2-trifluoroethyl)-5-(trifluoromethyl)thieno[2,3-b]pyridin-4-yl]-2,6-diazaspiro[3.3]heptan-2-yl}methanone] | potent menin-MLL binding inhibition activity | good cell proliferation inhibition activity | potent cell proliferation inhibitory activity | 20.6 | mRNA transcription inhibition activity | 45.0
48 | 290 | 710 | – | – | N#Cc1cnc2sc(CC(F)(F)F)cc2c1N1CC2(CN(C(=O)[C@H]3N[C@H]4CC[C@@H]3C[C@H]4CC3CC3)C2)C1 [Example 4, 4-{6-[(1S,3S,4R,6R)-6-(cyclopropylmethyl)-2-azabicyclo[2.2.2]octane-3-carbonyl]-2,6-diazaspiro[3.3]heptan-2-yl}-2-(2,2,2-trifluoroethyl)thieno[2,3-b]pyridine-5-carbonitrile] | – | – | – | 47.1 | – | 52.5
9 | 90 | 200 | – | – | C=C1C[C@@H]2CC[C@H]1[C@@H](C(=O)N1CC3(C1)CN(c1c(C#N)cnc4sc(CC(F)(F)F)cc14)C3)N2 [Example 6, 4-{6-[(1S,3S,4R)-5-methylidene-2-azabicyclo[2.2.2]octane-3-carbonyl]-2,6-diazaspiro[3.3]heptan-2-yl}-2-(2,2,2-trifluoroethyl)thieno[2,3-b]pyridine-5-carbonitrile] | – | – | – | 27.4 | – | 45.9
88.6 | 590 | 800 | – | – | O=C([C@H]1N[C@H]2CC[C@@H]1C[C@H]2CC1CC1)N1CC2(C1)CN(c1c(C(F)(F)F)cnc3sc(CC(F)(F)F)cc13)C2 [Example 3, [(1S,3S,4R,6R)-6-(cyclopropylmethyl)-2-azabicyclo[2.2.2]octan-3-yl]{6-[2-(2,2,2-trifluoroethyl)-5-(trifluoromethyl)thieno[2,3-b]pyridin-4-yl]-2,6-diazaspiro[3.3]heptan-2-yl}methanone] | – | – | – | 52.6 | – | 54.0
7 | 190 | 260 | – | – | N#Cc1cnc2sc(CC(F)(F)F)cc2c1N1CC2(CN(C(=O)[C@H]3N[C@H]4CC[C@@H]3C[C@@H]4CC3CC3)C2)C1 [Example 2, 4-{6-[(1S,3S,4R,6S)-6-(cyclopropylmethyl)-2-azabicyclo[2.2.2]octane-3-carbonyl]-2,6-diazaspiro[3.3]heptan-2-yl}-2-(2,2,2-trifluoroethyl)thieno[2,3-b]pyridine-5-carbonitrile] | – | – | – | 26.6 | – | 48.2
21.7 | 260 | 550 | – | – | N#Cc1cnc2sc(CC(F)(F)F)cc2c1N1CC2(CN(C(=O)[C@H]3N[C@H]4CC[C@@H]3[C@@H](F)[C@H]4CC3CC3)C2)C1 [Example 14, 4-{6-[(1S,3S,4S,5S,6S)-6-(cyclopropylmethyl)-5-fluoro-2-azabicyclo[2.2.2]octane-3-carbonyl]-2,6-diazaspiro[3.3]heptan-2-yl}-2-(2,2,2-trifluoroethyl)thieno[2,3-b]pyridine-5-carbonitrile] | potent menin-MLL binding inhibition activity | good cell proliferation inhibition activity | – | 38.5 | mRNA transcription inhibition activity | 51.4
54.2 | 440 | 690 | – | – | O=C([C@H]1N[C@H]2CC[C@@H]1[C@@H](F)[C@H]2CC1CC1)N1CC2(C1)CN(c1c(C(F)(F)F)cnc3sc(CC(F)(F)F)cc13)C2 [Example 13, [(1S,3S,4S,5S,6S)-6-(cyclopropylmethyl)-5-fluoro-2-azabicyclo[2.2.2]octan-3-yl]{6-[2-(2,2,2-trifluoroethyl)-5-(trifluoromethyl)thieno[2,3-b]pyridin-4-yl]-2,6-diazaspiro[3.3]heptan-2-yl}methanone] | – | good cell proliferation inhibition activity | – | 39.6 | mRNA transcription inhibition activity | 45.4

Compound | IC50 [1] [nM] | IC50 [2] [nM] | IC50 [3] [nM] | AUC(0-t) ([6]; male, NOD.CB17-Prkdcscid/J, plasma, po, 100 mg/kg) [ng·h/mL] | compound-exposure in plasma (in words) ([6]; summary of Test 4 table, oral 100 mg/kg) | menin-MLL binding inhibition activity (in words) [1] | cell proliferation inhibition activity, good (in words) [2, 7] | cell proliferation inhibitory activity, potent (in words) [2, 7] | mRNA at 1 μM (% control) MEIS1 [4] [% control] | mRNA transcription inhibition activity (in words) [4] | mRNA at 1 μM (% control) HOXA9 [5] [% control]
C=C1C[C@@H]2CC[C@H]1[C@@H](C(=O)N1CC3(C1)CN(c1c(C(F)(F)F)cnc4sc(CC(F)(F)F)cc14)C3)N2 [Example 5, [(1S,3S,4R)-5-methylidene-2-azabicyclo[2.2.2]octan-3-yl]{6-[2-(2,2,2-trifluoroethyl)-5-(trifluoromethyl)thieno[2,3-b]pyridin-4-yl]-2,6-diazaspiro[3.3]heptan-2-yl}methanone] | 92.7 | 200 | 280 | – | – | – | – | – | 32.3 | – | 44.3
